According to BindingDB's records for doi:10.1016/j.bmcl.2015.01.024 (Arena Pharmaceuticals, 2015):

Assay: Agonist activity at human IP receptor in human platelets assessed as inhibition of ADP-induced platelet aggregation

IC50	Structure (SMILES)
330 nM	COc1ccc(-c2c(-c3ccccc3)cnn(CC3CCc4c(cccc4OCC(=O)O)C3)c2=O)cc1 (centres undefined)
230 nM	O=C(O)COc1cccc2c1CCC(Cn1ncc(-c3ccccc3)c(-c3ccc(F)cc3)c1=O)C2 (centres undefined)
64 nM	COc1cccc(-c2cnn(CC3CCc4c(cccc4OCC(=O)O)C3)c(=O)c2-c2ccccc2)c1F (centres undefined)
62 nM	O=C(O)COc1cccc2c1CCC(Cn1ncc(-c3cccc(F)c3F)c(-c3ccc(F)cc3)c1=O)C2 (centres undefined)
62 nM	O=C(O)COc1cccc2c1CC[C@@H](Cn1ncc(-c3cccc(F)c3F)c(-c3ccc(F)cc3)c1=O)C2
87 nM	O=C(O)COc1cccc2c1CCC(Cn1ncc(-c3cccc(F)c3F)c(-c3ccccc3)c1=O)C2 (centres undefined)
325 nM	O=C(O)COc1cccc2c1CCC(Cn1ncc(-c3ccccc3)c(-c3ccccc3)c1=O)C2 (centres undefined)
191 nM	O=C(O)COc1cccc2c1CCC(Cn1ncc(-c3cccc(F)c3)c(-c3ccccc3)c1=O)C2 (centres undefined)
220 nM	O=C(O)COc1cccc2c1CCC(Cn1ncc(-c3ccccc3F)c(-c3ccccc3)c1=O)C2 (centres undefined)
